Here are results for 4 molecules from patent EP0630648A1, “Use of acyl L-carnitine gamma-hydroxybutyrate for the treatment of drug addiction” (Sigma-Tau Industrie Farmaceutiche Riunite S.p.A., priority 1993, dated 1994).

Experiment [1] has as its system male Wistar rats. Briefly: Heroin self-administration behaviour in rats. Conditions: 100 mg/kg daily intraperitoneal; for number of heroin self-administrations: in the space of 3 hours.
Experiment [2] deals with male Wistar rats. Briefly: Withdrawal syndrome due to naloxone administration in morphine-treated rats. Conditions: morphine for 10 days; for Weight loss: mean loss of body weight 1 hour after naloxone injection (1 mg/kg subcutaneous); for Latency of stereotype jumps: then naloxone 1 mg/kg subcutaneous, cut-off time 900 sec. In kind it is in vivo. As for the experimental part: After repeated treatment with morphine for a period of 10 days, the rats were all weighed and administered naloxone (1 mg/kg dissolved in saline solution) by subcutaneous injection. The resulting withdrawal syndrome was assessed by measuring the latency of onset of "stereotype jumps" from a circular platform measuring 35 cm in diameter and 70 cm in height. A cut-off time of 900 sec. was used. In 5 groups of animals, naloxone administration was combined with administration of saline, VCGB, GHB, LAC and VC, respectively.
The body weight of the animals was then measured again 1 hour after naloxone injection and the mean loss of body weight was calculated for each group of animals treated.

Experiment [3] deals with male Wistar rats. Briefly: Hot-plate test: onset of habituation to the analgesic action of morphine. In kind it is in vivo. Conditions: for mean latency: after 15 days of daily morphine, substance 100 mg/kg i.p., morphine 10 mg/kg i.p., plate 51°C. As for the experimental part: Morphine addiction was induced in the rats by daily injections for a period of 15 days.
Five different groups of animals also received saline solution, VCGB, GHB, LAC or VC (100 mg/kg i.p.), respectively.

Each structure is given as a SMILES string. Marks after values point to notes of the source that are not given here.

`O=C(O)CCCO` [GHB, gamma-hydroxybutyric acid]: the figures for the “number of heroin self-administrations” value with male Wistar rats [1] (3rd day), in the experiment on male Wistar rats [1] (4th day) and in the experiment with male Wistar rats [1] (5th day) were 7.5 ± 0.6, 8.0 ± 0.7 and 9.0 ± 0.6, respectively. Also, the Weight loss with male Wistar rats [2] came to 15.5 ± 0.6 g. Further, the “Latency of stereotype jumps” value in the experiment on male Wistar rats [2] stood at 451 ± 63 s. Further, the results for the mean latency with male Wistar rats [3] (T 0), in the experiment on male Wistar rats [3] (T 30) and in the experiment with male Wistar rats [3] (T 240) were 5.5 s, 13.0* sec and 6.0 s, respectively.
For `CC(=O)OC(CC(=O)[O-])C[N+](C)(C)C` [LAC, acetyl L-carnitine], the “number of heroin self-administrations” value was 7.0 ± 0.5 with male Wistar rats [1] (3rd day), 9.2 ± 0.5 in the experiment with male Wistar rats [1] (4th day) and 8.9 ± 0.8 in the experiment with male Wistar rats [1] (5th day). In the experiment with male Wistar rats [2], this molecule returned a Weight loss of 18.6 ± 2.1 g. Also, the “Latency of stereotype jumps” value in the experiment on male Wistar rats [2] was found to be 465 ± 99 s. Also, the mean latency with male Wistar rats [3] (T 0) was 6.0 s; in the experiment on male Wistar rats [3] (T 30), 10.0* sec; in the experiment on male Wistar rats [3] (T 240), 6.0 s.
As to `CC(C)CC(=O)O[C@H](CC(=O)[O-])C[N+](C)(C)C` [VC, isovaleryl L-carnitine], the “number of heroin self-administrations” value with male Wistar rats [1] (3rd day) came to 7.2 ± 0.5; in the experiment with male Wistar rats [1] (4th day), 9.5 ± 0.5; in the experiment on male Wistar rats [1] (5th day) it was 8.8 ± 0.5. In addition, in the experiment on male Wistar rats [2], the Weight loss was 16.6 ± 2.1 g. For the same molecule, in the experiment with male Wistar rats [2], the “Latency of stereotype jumps” value stood at 480 ± 99 s. The mean latency in the experiment with male Wistar rats [3] (T 0) was 6.0 s; with male Wistar rats [3] (T 30), 10.0* sec; in the experiment on male Wistar rats [3] (T 240), 6.0 s.
Turning to `CC(C)CC(=O)O[C@H](CC(=O)OCCCC(=O)[O-])C[N+](C)(C)C` [VCGB, isovaleryl L-carnitine gamma-hydroxybutyrate], the “number of heroin self-administrations” value stood at 6.3 ± 0.5 in the experiment on male Wistar rats [1] (3rd day), 6.8 ± 0.4 with male Wistar rats [1] (4th day) and 6.3 ± 0.5 with male Wistar rats [1] (5th day). Also, the “effect on number of heroin self-administrations (in words)” value in the experiment with male Wistar rats [1] (summary of the table) is given as “very long-lasting action in reducing the number of self-administrations”. In the experiment with male Wistar rats [2], the Weight loss is recorded as 12.3 ± 0.6 g. In addition, the “Latency of stereotype jumps” value with male Wistar rats [2] turned out to be 564 ± 69 s. Further, the mean latency was 6.5 s in the experiment on male Wistar rats [3] (T 0), 14.0* sec with male Wistar rats [3] (T 30) and 10.0* sec in the experiment with male Wistar rats [3] (T 240). In the experiment with male Wistar rats [3] (summary of the table, 100 mg/kg i.p.), the “effect on habituation to morphine-induced analgesia (in words)” value was “reduce habituation to morphine-induced analgesia to an appreciable extent”.
